These compounds were tested against T1, recombinant His-tag Y220C p53 DBD protein (Homo sapiens, UniProt P04637, Y220C) (assay: In vitro DNA binding activity assay (TR-FRET): binding of His-tag Y220C p53 DBD to biotin-labeled consensus DNA). Conditions: SC150 = concentration to increase DNA binding by […], His-tag Y220C p53 DBD, biotin-labeled consensus DNA.
T1 construct: recombinant His-tag Y220C p53 DBD protein (amino acids #˜94-312)
Assay type: biochemical

Row | Y220C SC150 (μM) | SMILES
1 | * (* = 0 μM ≤ SC150 < 0.1 μM) | CN1CC[C@@H](Nc2cccc3c2cc(-c2noc(CNC(=O)c4ccn(C(C)(C)C)c4)n2)n3CC(F)(F)F)[C@@H](F)C1 (racemic) [Compound 184B, (+/−)-tert-butyl-N-{[3-(4-{[(3R,4S)-3-fluoro-1-methylpiperidin-4-yl]amino}-1-(2,2,2-trifluoroethyl)-1H-indol-2-yl)-1,2,4-oxadiazol-5-yl]methyl}-1H-pyrrole-3-carboxamide]
2 | * (* = 0 μM ≤ SC150 < 0.1 μM) | CN1CC[C@@H](Nc2cccc3c2cc(-c2noc(CNC(=O)[C@@H]4C[C@H]4c4ccccc4)n2)n3CC(F)(F)F)[C@@H](F)C1 (racemic) [Compound 185B]
3 | * (* = 0 μM ≤ SC150 < 0.1 μM) | COc1cc(S(C)(=O)=O)ccc1NCc1nc(-c2cc3c(N[C@@H]4CCNC[C@@H]4F)cccc3n2CC(F)(F)F)no1 (racemic) [Compound 188B, (+/−)-N-[(3R,4S)-3-fluoropiperidin-4-yl]-2-(5-{[(4-methanesulfonyl-2-methoxyphenyl)amino]methyl}-1,2,4-oxadiazol-3-yl)-1-(2,2,2-trifluoroethyl)-1H-indol-4-amine]
4 | ** (** = 0.1 μM ≤ SC150 < 0.5 μM) | CN(Cc1nc(-c2cc3c(N[C@@H]4CCNC[C@@H]4F)cccc3n2CC(F)(F)F)no1)c1cn[nH]c1 (racemic) [Compound 191B, (+/−)-N-[(3R,4S)-3-fluoropiperidin-4-yl]-2-(5-{[methyl(1H-pyrazol-4-yl)amino]methyl}-1,2,4-oxadiazol-3-yl)-1-(2,2,2-trifluoroethyl)-1H-indol-4-amine]
5 | * (* = 0 μM ≤ SC150 < 0.1 μM) | CN1CC[C@@H](Nc2cccc3c2cc(-c2noc(CN(C)c4cn[nH]c4)n2)n3CC(F)(F)F)[C@@H](F)C1 (racemic) [Compound 192B, (+/−)-N-[(3R,4S)-3-fluoro-1-methylpiperidin-4-yl]-2-(5-{[methyl(1H-pyrazol-4-yl)amino]methyl}-1,2,4-oxadiazol-3-yl)-1-(2,2,2-trifluoroethyl)-1H-indol-4-amine]
6 | * (* = 0 μM ≤ SC150 < 0.1 μM) | CN1CC[C@@H](Nc2cccc3c2cc(-c2noc(CNC(=O)[C@H]4C[C@@H]4C#N)n2)n3CC(F)(F)F)[C@@H](F)C1 (racemic) [Compound 193B, (1RS,2RS)-2-cyano-N-{[3-(4-{[(3S,4R)-3-fluoro-1-methylpiperidin-4-yl]amino}-1-(2,2,2-trifluoroethyl)-1H-indol-2-yl)-1,2,4-oxadiazol-5-yl]methyl}cyclopropane-1-carboxamide]
7 | * (* = 0 μM ≤ SC150 < 0.1 μM) | CN1CC[C@@H](Nc2cccc3c2cc(-c2nc(CNC(=O)C4CC4)no2)n3CC(F)(F)F)[C@@H](F)C1 (racemic) [Compound 275B, (+/−)-N-{[5-(4-{[(3R,4S)-3-fluoro-1-methylpiperidin-4-yl]amino}-1-(2,2,2-trifluoroethyl)-1H-indol-2-yl)-1,2,4-oxadiazol-3-yl]methyl}cyclopropanecarboxamide]
8 | * (* = 0 μM ≤ SC150 < 0.1 μM) | CN1CC[C@@H](Nc2cccc3c2cc(-c2nc(CNC(=O)c4ccccc4)no2)n3CC(F)(F)F)[C@@H](F)C1 (racemic) [Compound 276B, (+/−)-N-{[5-(4-{[(3R,4S)-3-fluoro-1-methylpiperidin-4-yl]amino}-1-(2,2,2-trifluoroethyl)-1H-indol-2-yl)-1,2,4-oxadiazol-3-yl]methyl}benzamide]
9 | * (* = 0 μM ≤ SC150 < 0.1 μM) | CN1CC[C@@H](Nc2cccc3c2cc(-c2nc(CNC(=O)c4cccs4)no2)n3CC(F)(F)F)[C@@H](F)C1 (racemic) [Compound 277B, (+/−)-N-{[5-(4-{[(3R,4S)-3-fluoro-1-methylpiperidin-4-yl]amino}-1-(2,2,2-trifluoroethyl)-1H-indol-2-yl)-1,2,4-oxadiazol-3-yl]methyl}thiophene-2-carboxamide]
10 | * (* = 0 μM ≤ SC150 < 0.1 μM) | CN1CC[C@@H](Nc2cccc3c2cc(-c2nc(CNC(=O)c4ccsc4)no2)n3CC(F)(F)F)[C@@H](F)C1 (racemic) [Compound 278B, (+/−)-N-{[5-(4-{[(3R,4S)-3-fluoro-1-methylpiperidin-4-yl]amino}-1-(2,2,2-trifluoroethyl)-1H-indol-2-yl)-1,2,4-oxadiazol-3-yl]methyl}thiophene-3-carboxamide]
11 | * (* = 0 μM ≤ SC150 < 0.1 μM) | CN1CC[C@@H](Nc2cccc3c2cc(-c2nc(CNC(=O)c4cncs4)no2)n3CC(F)(F)F)[C@@H](F)C1 (racemic) [Compound 279B, (+/−)-N-{[5-(4-{[(3R,4S)-3-fluoro-1-methylpiperidin-4-yl]amino}-1-(2,2,2-trifluoroethyl)-1H-indol-2-yl)-1,2,4-oxadiazol-3-yl]methyl}-1,3-thiazole-5-carboxamide]
12 | ** (** = 0.1 μM ≤ SC150 < 0.5 μM) | CC(C)(C)n1ccc(C(=O)NCc2nc(-c3cc4c(N[C@@H]5CCCC[C@H]5F)cccc4n3CC(F)(F)F)no2)c1 (racemic) [Compound 340B]
13 | * (* = 0 μM ≤ SC150 < 0.1 μM) | COCC(C)n1ccc(C(=O)NCc2nc(-c3cc4c(N[C@@H]5CCN(C(C)(C)C)C[C@@H]5F)cccc4n3CC(F)(F)F)no2)c1 (mixture of isomers) [Compound 357B, rac-N-{[3-(4-{[(3R,4S)-1-tert-butyl-3-fluoropiperidin-4-yl]amino}-1-(2,2,2-trifluoroethyl)-1H-indol-2-yl)-1,2,4-oxadiazol-5-yl]methyl}-1-(1-methoxypropan-2-yl)-1H-pyrrole-3-carboxamide]
14 | * (* = 0 μM ≤ SC150 < 0.1 μM) | COCC(C)n1ccc(C(=O)NCc2nc(-c3cc4c(N[C@@H]5CCN(C(C)(C)C)C[C@H]5F)cccc4n3CC(F)(F)F)no2)c1 (mixture of isomers) [Compound 358B, rac-N-{[3-(4-{1[(3R,4R)-1-tert-butyl-3-fluoropiperidin-4-yl]amino}-1-(2,2,2-trifluoroethyl)-1H-indol-2-yl)-1,2,4-oxadiazol-5-yl]methyl}-1-(1-methoxypropan-2-yl)-1H-pyrrole-3-carboxamide]
15 | * (* = 0 μM ≤ SC150 < 0.1 μM) | CO[C@@H]1CCC[C@@H]1n1cc(C(=O)NCc2nc(-c3cc4c(N[C@@H]5CCN(C)C[C@@H]5F)cccc4n3CC(F)(F)F)no2)cn1 (racemic) [Compound 370B]
16 | * (* = 0 μM ≤ SC150 < 0.1 μM) | CC(C)(C)n1ccc(C(=O)NCc2nc(-c3cc4c(N[C@@H]5CNCC[C@@H]5F)cccc4n3CC(F)(F)F)no2)c1 (racemic) [Compound 382B, rac-1-tert-butyl-N-{[3-(4-{[(3R,4S)-4-fluoropiperidin-3-yl]amino}-1-(2,2,2-trifluoroethyl)-1H-indol-2-yl)-1,2,4-oxadiazol-5-yl]methyl}-1H-pyrrole-3-carboxamide]
17 | * (* = 0 μM ≤ SC150 < 0.1 μM) | CO[C@]1(C)CC[C@H](n2ccc(C(=O)NCc3nc(-c4cc5c(N[C@@H]6CCN(C)C[C@@H]6F)cccc5n4CC(F)(F)F)no3)c2)C1 (racemic) [Compound 387B, cis-N-{[3-(4-{[(3S,4R)-3-fluoro-1-methylpiperidin-4-yl]amino}-1-(2,2,2-trifluoroethyl)-1H-indol-2-yl)-1,2,4-oxadiazol-5-yl]methyl}-1-[(1R,3S)-3-methoxy-3-methylcyclopentyl]-1H-pyrrole-3-carboxamide]
18 | * (* = 0 μM ≤ SC150 < 0.1 μM) | CO[C@@]1(C)CC[C@H](n2ccc(C(=O)NCc3nc(-c4cc5c(N[C@@H]6CCN(C)C[C@@H]6F)cccc5n4CC(F)(F)F)no3)c2)C1 (racemic) [Compound 388B]
19 | * (* = 0 μM ≤ SC150 < 0.1 μM) | CN1CC[C@H](F)[C@H](Nc2cccc3c2cc(-c2noc(CNC(=O)c4ccn(C(C)(C)C)c4)n2)n3CC(F)(F)F)C1 (racemic) [Compound 389B, rac-1-tert-butyl-N-{[3-(4-{[(3R,4S)-4-fluoro-1-methylpiperidin-3-yl]amino}-1-(2,2,2-trifluoroethyl)-1H-indol-2-yl)-1,2,4-oxadiazol-5-yl]methyl}-1H-pyrrole-3-carboxamide]
20 | * (* = 0 μM ≤ SC150 < 0.1 μM) | Cn1ccc(C(=O)NCc2nc(-c3cc4c(N[C@@H]5CCN(C(C)(C)C)C[C@H]5F)cccc4n3CC(F)(F)F)no2)c1 (racemic) [Compound 399B, N-{[3-(4-{[(3R,4R)-1-tert-butyl-3-fluoropiperidin-4-yl]amino}-1-(2,2,2-trifluoroethyl)-1H-indol-2-yl)-1,2,4-oxadiazol-5-yl]methyl}-1-methyl-1H-pyrrole-3-carboxamide]
21 | * (* = 0 μM ≤ SC150 < 0.1 μM) | Cn1cc(C(=O)NCc2nc(-c3cc4c(N[C@@H]5CCN(C(C)(C)C)C[C@H]5F)cccc4n3CC(F)(F)F)no2)cn1 (racemic) [Compound 407B, N-{[3-(4-{[(3R,4R)-1-tert-butyl-3-fluoropiperidin-4-yl]amino}-1-(2,2,2-trifluoroethyl)-1H-indol-2-yl)-1,2,4-oxadiazol-5-yl]methyl}-1-methyl-1H-pyrazole-4-carboxamide]
22 | * (* = 0 μM ≤ SC150 < 0.1 μM) | COCC(C)(C)n1cc(C(=O)NCc2nc(-c3cc4c(N[C@H]5CCN(C(C)(C)C)C[C@@H]5F)cccc4n3CC(F)(F)F)no2)cn1 (racemic) [Compound 411B, N-{[3-(4-{[(3R,4R)-1-tert-butyl-3-fluoropiperidin-4-yl]amino}-1-(2,2,2-trifluoroethyl)-1H-indol-2-yl)-1,2,4-oxadiazol-5-yl]methyl}-1-(1-methoxy-2-methylpropan-2-yl)-1H-pyrazole-4-carboxamide]
23 | * (* = 0 μM ≤ SC150 < 0.1 μM) | CO[C@H]1CCC[C@@H]1n1ccc(C(=O)NCc2nc(-c3cc4c(N[C@@H]5CCN(C)C[C@@H]5F)cccc4n3CC(F)(F)F)no2)c1 (relative stereo) [Compound 355B]
24 | * (* = 0 μM ≤ SC150 < 0.1 μM) | CO[C@H]1CCCC[C@@H]1n1ccc(C(=O)NCc2nc(-c3cc4c(N[C@@H]5CCN(C)C[C@@H]5F)cccc4n3CC(F)(F)F)no2)c1 (relative stereo) [Compound 384B]
25 | * (* = 0 μM ≤ SC150 < 0.1 μM) | CO[C@H]1CCCC[C@@H]1n1cc(C(=O)NCc2nc(-c3cc4c(N[C@@H]5CCN(C)C[C@@H]5F)cccc4n3CC(F)(F)F)no2)cn1 (relative stereo) [Compound 385B]
